The target of one assay is T1, human β3 adrenergic receptor (Homo sapiens, UniProt P13945).
T1 construct: expressed in transfected cells; host or cells: Chinese hamster ovary (CHO) cells, stably transfected
T1 sequence (P13945 whole entry): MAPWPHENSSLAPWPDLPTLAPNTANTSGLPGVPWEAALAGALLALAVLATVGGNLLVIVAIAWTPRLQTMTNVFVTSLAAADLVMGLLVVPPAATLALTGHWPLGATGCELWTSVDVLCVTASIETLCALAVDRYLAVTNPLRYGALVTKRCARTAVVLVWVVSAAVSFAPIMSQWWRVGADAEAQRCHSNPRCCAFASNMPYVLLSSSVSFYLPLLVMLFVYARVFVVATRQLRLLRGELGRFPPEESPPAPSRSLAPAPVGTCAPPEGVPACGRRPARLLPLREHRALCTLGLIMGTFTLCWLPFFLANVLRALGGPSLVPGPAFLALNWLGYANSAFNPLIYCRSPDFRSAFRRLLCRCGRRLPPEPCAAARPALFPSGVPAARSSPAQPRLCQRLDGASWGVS
In words: Beta-3 agonist in vitro functional assay: cAMP production (LANCE TR-FRET) in CHO cells stably transfected with the cloned β3 receptor. To be noted: Table 4; cAMP, CHO cells; read-out: Human β3 agonist functional activity. Format: cell-based. The method, then: Chinese hamster ovary (CHO) cells, stably transfected with the cloned β-adrenergic receptor (β1, β2 or β3) are harvested after 3 days of subculturing. Harvesting of cells is done with Enzyme-free Dissociation Media (Specialty Media). Cells are then counted and resuspended in assay buffer (Hank's Balanced salt solution supplemented with 5 mM HEPES, […]) containing a phosphodiesterase inhibitor (IBMX, 0.6 mM). The reaction is initiated by mixing 6,000 cells in 6 μL with 6 μL Alexa Fluor labeled cAMP antibody (LANCE™ kit) which is then added to an assay well containing 12 μL of compound (diluted in assay buffer to 2× final concentration). The reaction proceeds for 30 minutes at RT and is terminated by the addition of 24 ul detection buffer (LANCE™ kit). The assay plate is then incubated for 1 h at RT and time-resolved fluorescence measured on a Perkin Elmer Envision reader or equivalent. The unknown cAMP level is determined by comparing fluorescence levels to a cAMP standard curve.
The non-selective, full agonist β-adrenergic ligand isoproterenol is used at all three receptors to determine maximal stimulation. […] Data are analyzed using Microsoft Excel and Graphpad Prism or an internally developed data analysis software package.
(In general: Cyclic AMP is a second messenger, typically raised through Gs and lowered through Gi signalling.)
For `O=C(c1ccc(C[C@@H]2CC[C@H]([C@H](O)c3ccccc3)N2)cc1)N1CC2CCNC2C1` (stereo partly shown) [Example 24], the EC50 lay within 100 to 999 nM.
Consider `CCOC(=O)C1(F)CCCN(C(=O)c2ccc(C[C@@H]3CC[C@H]([C@H](O)c4ccccc4)N3)cc2)C1` (stereo partly shown) [Example 37], for which the EC50 was in the range of 100 to 999 nM.
Consider `O=C(c1ccc(C[C@@H]2CC[C@H]([C@H](O)c3ccccc3)N2)cc1)N1CCCC(S(=O)(=O)c2ncc(Br)s2)C1` (stereo partly shown) [Example 38], for which the EC50 lay within 10 to 99.9 nM.
For `O=C(c1ccc(C[C@@H]2CC[C@H]([C@H](O)c3ccccc3)N2)cc1)N1CC2CC(n3nccn3)CC2C1` (stereo partly shown) [Example 20], the EC50 lay in the range of 10 to 99.9 nM.
Consider `CCOC(=O)C1CCCCN1C(=O)c1ccc(C[C@@H]2CC[C@H]([C@H](O)c3ccccc3)N2)cc1` (stereo partly shown) [Example 48], for which the EC50 is 100 to 999 nM.
In the case of `Cc1noc(C2CCCCN2C(=O)c2ccc(C[C@@H]3CC[C@H]([C@H](O)c4ccccc4)N3)cc2)n1` (stereo partly shown) [Example 49], the EC50 is 999 to 3000 nM.

The assay is the same for the next values; noted with them: Table 5; cAMP, CHO cells; read-out: Human β3 agonist functional activity.
Take `CC(c1ccccn1)C1CCN(C(=O)c2ccc(C[C@@H]3CC[C@H]([C@H](O)c4ccccc4)N3)cc2)CC1` (stereo partly shown) [Example 164]: the EC50 was 10 to 99.9 nM.
With `CS(=O)(=O)c1ccccc1OC1CCN(C(=O)c2ccc(C[C@@H]3CC[C@H]([C@H](O)c4ccccc4)N3)cc2)CC1` [Example 156], the EC50 was in the range of 10 to 99.9 nM.
In the case of `O=C(c1ccc(C[C@@H]2CC[C@H]([C@H](O)c3ccccc3)N2)cc1)N1CCC(Oc2ccccn2)CC1` [Example 152], the EC50 was in the range of 10 to 99.9 nM.
Still for that read-out and setting: next, `O=C(c1ccc(C[C@@H]2CC[C@H]([C@H](O)c3ccccc3)N2)cc1)N1CCC(S(=O)(=O)c2ccc(F)cc2)CC1` [Example 128]: 10 to 99.9 nM; `CN(C)C(=O)c1cc(OC2CCN(C(=O)c3ccc(C[C@@H]4CC[C@H]([C@H](O)c5ccccc5)N4)cc3)CC2)no1` [Example 158]: 100 to 999 nM.

Still in this assay, the particulars now being: Table 7; cAMP, CHO cells; ranges as given for Tables 6 and 7; read-out: Human β3 agonist functional activity.
Regarding `O=C(OCc1ccccc1)C1C2CN(C(=O)c3ccc(C[C@@H]4CC[C@H]([C@H](O)c5ccccc5)N4)cc3)CC21` (stereo partly shown) [Example 229], the EC50 is under 1 nM.
Regarding `N#CC1(c2cccnn2)C2CN(C(=O)c3ccc(C[C@@H]4CC[C@H]([C@H](O)c5ccccc5)N4)cc3)CC21` (stereo partly shown) [Example 236], the EC50 was 10 to 99.9 nM.

The same assay, now with this note: Table 8; Beta-3 agonist in vitro functional assay; read-out: Human β3 agonist functional activity.
For the compound `O=C(c1ccc(C[C@@H]2CC[C@H]([C@H](O)c3ccccc3)N2)cc1)N1CCC2(CCOC2)CC1` [Example 311], the EC50 was in the range of 100 to 999 nM.
Still for that read-out and setting: next, `O=C(c1ccc(C[C@@H]2CC[C@H]([C@H](O)c3ccccc3)N2)cc1)N1CCC2(CC1)OCC[S+]2[O-]` (stereo partly shown) [Example 304]: 100 to 999 nM; `O=C(c1ccc(C[C@@H]2CC[C@H]([C@H](O)c3cccnc3)N2)cc1)N1CCC2(CCOC2=O)CC1` [Example 292]: 10 to 99.9 nM.
`COc1ccc(C2(CNC(=O)C(C)(C)C)CCN(C(=O)c3ccc(C[C@@H]4CC[C@H]([C@H](O)c5cccnc5)N4)cc3)CC2)cc1` [Example 247]: the EC50 is 100 to 999 nM.
On the same count and under the same terms, then `O=C1OC2(CCN(C(=O)c3ccc(C[C@@H]4CC[C@H]([C@H](O)c5cccnc5)N4)cc3)CC2)c2ccccc21` [Example 284], with 1 to 9.9 nM; and `O=C(c1ccc(C[C@@H]2CC[C@H]([C@H](O)c3ccccc3)N2)cc1)N1CCC2(CCCC2n2cccn2)CC1` (stereo partly shown) [Example 282], with 100 to 999 nM; and `O=C1OC2(CCN(C(=O)c3ccc(C[C@@H]4CC[C@H]([C@H](O)c5cccnc5)N4)cc3)CC2)CC1Cc1ccc(F)cc1` (stereo partly shown) [Example 277], with 1 to 9.9 nM.
For the compound `CC1(C)CC2(CCN(C(=O)c3ccc(C[C@@H]4CC[C@H]([C@H](O)c5ccccc5)N4)cc3)CC2)OC1=O` [Example 279], the EC50 is 10 to 99.9 nM.
Consider `CC1(Cc2ccc(F)cc2)CC2(CCN(C(=O)c3ccc(C[C@@H]4CC[C@H]([C@H](O)c5ccccc5)N4)cc3)CC2)OC1=O` (stereo partly shown) [Example 278], for which the EC50 was under 1 nM.
For the compound `COc1ccc2c(c1)C(=O)CC1(CCN(C(=O)c3ccc(C[C@@H]4CC[C@H]([C@H](O)c5ccccc5)N4)cc3)CC1)S2(=O)=O` [Example 339], the EC50 lay in the range of 1 to 9.9 nM.
With `O=C1NC2(CCN(C(=O)c3ccc(C[C@@H]4CC[C@H]([C@H](O)c5ccccc5)N4)cc3)CC2)CO1` [Example 271], the EC50 lay within 100 to 999 nM.
As for `O=C1CC(c2ccccc2)C2(CCN(C(=O)c3ccc(C[C@@H]4CC[C@H]([C@H](O)c5ccccc5)N4)cc3)CC2)O1` (stereo partly shown) [Example 280], the EC50 is 1 to 9.9 nM.
Take `CC1(C)CC2(CCN(C(=O)c3ccc(C[C@@H]4CC[C@H]([C@H](O)c5cccnc5)N4)cc3)CC2)C(=O)O1` [Example 294]: the EC50 is 1 to 9.9 nM.

Staying with this assay, now noted: Table 9; Beta-3 agonist in vitro functional assay; read-out: Human β3 agonist functional activity.
In the case of `O=C(c1ccc(C[C@@H]2CC[C@H]([C@H](O)c3ccccc3)N2)cc1)N1CCN(c2ccccn2)CC1` [Example 355], the EC50 lay within 100 to 999 nM.
For `O=C(c1ccc(C[C@@H]2CC[C@H]([C@H](O)c3ccccc3)N2)cc1)N1CCN(Cc2nnn[nH]2)CC1` [Example 398], the EC50 lay in the range of 10 to 99.9 nM.
For the compound `CC(C)C(c1ccccn1)N1CCN(C(=O)c2ccc(C[C@@H]3CC[C@H]([C@H](O)c4ccccc4)N3)cc2)CC1` (stereo partly shown) [Example 419], the EC50 was in the range of 10 to 99.9 nM.
Take `Cn1ccnc1CN1CCN(C(=O)c2ccc(C[C@@H]3CC[C@H]([C@H](O)c4ccccc4)N3)cc2)CC1` [Example 396]: the EC50 fell in the range of 100 to 999 nM.
Same read-out and setting: then `O=C(c1ccc(C[C@@H]2CC[C@H]([C@H](O)c3ccccc3)N2)cc1)N1CCN(c2ccc[nH]c2=O)CC1` [Example 387], with 10 to 99.9 nM.

The assay is the same for the next values; noted with them: Table 10; Beta-3 agonist in vitro functional assay; read-out: Human β3 agonist functional activity.
`CC(C(=O)O)N1CCN(C(=O)c2ccc(C[C@@H]3CC[C@H]([C@H](O)c4ccccc4)N3)cc2)CC1` (stereo partly shown) [Example 433]: the EC50 is 1 to 9.9 nM.
For the compound `CC(C(=O)N1CCCC2(CCC2)C1)N1CCN(C(=O)c2ccc(C[C@@H]3CC[C@H]([C@H](O)c4ccccc4)N3)cc2)CC1` (stereo partly shown) [Example 496], the EC50 lay within 10 to 99.9 nM.
Take `COC[C@H](C)NC(=O)C(C)N1CCN(C(=O)c2ccc(C[C@@H]3CC[C@H]([C@H](O)c4ccccc4)N3)cc2)CC1` (stereo partly shown) [Example 446]: the EC50 lay within 10 to 99.9 nM.
For the compound `CNC(=O)C(C)N1CCN(C(=O)c2ccc(C[C@@H]3CC[C@H]([C@H](O)c4ccccc4)N3)cc2)CC1` (stereo partly shown) [Example 435], the EC50 lay within 10 to 99.9 nM.
For the compound `Cc1c(CNC(=O)C(C)N2CCN(C(=O)c3ccc(C[C@@H]4CC[C@H]([C@H](O)c5ccccc5)N4)cc3)CC2)cnn1C` (stereo partly shown) [Example 464], the EC50 was in the range of 10 to 99.9 nM.

The same assay, now with this note: Table 11; cAMP, CHO cells; read-out: Human β3 agonist functional activity.
In the case of `C[C@@H]1CN(C(=O)c2ccc(C[C@@H]3CC[C@H]([C@H](O)c4ccccc4)N3)cc2)CCN1Cc1ccccn1` [Example 527], the EC50 lay in the range of 10 to 99.9 nM.
On to `C[C@@H]1CN(Cc2ccccn2)CCN1C(=O)c1ccc(C[C@@H]2CC[C@H]([C@H](O)c3ccccc3)N2)cc1` [Example 529], for which the EC50 was 100 to 999 nM.
Regarding `CC(c1ccccn1)N1CC2CCC1CN2C(=O)c1ccc(CC2CCC(C(O)c3ccccc3)N2)cc1` (stereo not shown) [Example 542], the EC50 was 100 to 999 nM.

The same assay, now with this note: Table 12; human β3 functional activity given as ranges; read-out: Human β3 agonist functional activity.
For `O=C(c1ccc(CC2CCC(C(O)c3ccccc3)N2)cc1)N1CCC2(CC1)CC(C(F)(F)F)OC2=O` (single isomer, unassigned) [Example 565], the EC50 is 1 to 9.9 nM.
The same measure, in the same setting: then `O=C(c1ccc(CC2CCC(C(O)c3ccccc3)N2)cc1)N1CCC2(CC1)CC(C(F)(F)F)OC2=O` (single isomer, unassigned) [Example 566], with 10 to 99.9 nM.

Staying with this assay, now noted: given as a range; cAMP, CHO cells; read-out: human β3 functional activity.
For the compound `O=C(c1ccc(CC2CCC(C(O)c3ccccc3)N2)cc1)N1CCC2(CC1)CC(C1CC1)OC2=O` (single isomer, unassigned) [Ex. 554], the EC50 was in the range of 1 to 9.9 nM.

Staying with this assay, now noted: human β3 functional activity.
Consider `C[C@H](c1ccccn1)N1C2CCC1C1CCC2N1C(=O)c1ccc(C[C@@H]2CC[C@H]([C@H](O)c3ccccc3)N2)cc1` [Example 525], for which the EC50 is 10 to 99.9 nM.

The values above are taken from patent US8354403B2, “Pyrrolidine derived beta 3 adrenergic receptor agonists” (Merck Sharp & Dohme Corp., priority 2009, dated 2013).
